Reference: paper PMC5068570 (Journal of the American Chemical Society, 2016)

Target: T1, Robo1 (Roundabout receptor 1; Robo1-GFP) (Homo sapiens, UniProt Q9Y6N7)
T1 sequence (Q9Y6N7 60-265 limits assumed): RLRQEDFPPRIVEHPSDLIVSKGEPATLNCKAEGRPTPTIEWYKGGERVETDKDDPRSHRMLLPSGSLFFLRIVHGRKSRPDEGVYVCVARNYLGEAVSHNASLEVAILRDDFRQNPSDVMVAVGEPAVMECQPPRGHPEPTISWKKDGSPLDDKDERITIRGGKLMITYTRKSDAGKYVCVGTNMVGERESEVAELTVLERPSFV
Test: SPR, Biacore T100, Robo1 immobilised on CM5
Type: binding
Settings: HBS-EP pH 7.4, 150 mM NaCl, 25 °C; Langmuir 1:1 fit

Substance | Kd [µM]
GlcA-GlcNS6S-IdoA-GlcNS-IdoA2S-GlcNS6S-IdoA-GlcNAc6S [compound 1] | 4.8
IdoA-GlcNS6S-IdoA-GlcNS6S [compound 19] | ~20
